Experiments:
[1] = system: human total cytochrome P450 (CYP450); assay: ELISA for total cytochrome P450 in HEPG2 cells; format: in vitro ADME; conditions: HEPG2, 24 h, concentrations inhibiting S. aureus
Method: The effect on CYP450 was tested using the ELISA method on the HEPG2 liver cell line. As mentioned, it has weak or absent expression of the CYP450 superfamily, e.g., CYP3A4, CYP1A2, etc., and that low basal activity makes it a good model for studies of CYP inducers. In addition, these cells have the advantage of immortalization due to their cancerous nature. The standard curves after the two ELISA tests (Figure S7) were prepared as a standard dose–response curve, also called a four-parameter logistic (4-PL) curve.
Human total cytochrome P450 was examined using the Human Cytochrome P450 ELISA Kit (MBS705506, MyBioSource, San Diego, CA, USA) according to the manufacturer’s instructions. HEPG2 cells were seeded at a concentration of 100,000 cells/mL in a 6-well plate, and the overnight culture was treated with selected Hypericum agents. After 24 h of exposure, the protocol was performed according to the kit instructions.
The test principle uses the sandwich quantitative enzyme immunoassay technique. A microplate was pre-coated with an antibody specific for cytochrome P450. Standards and samples were pipetted into the wells, and if cytochrome P450 molecules were present, they were bound by the immobilized antibody. […] The color development was stopped, and its intensity was measured on a microplate reader ELx800 (BioTek Instruments, Inc., Winooski, VT, USA).

[2] = system: S. aureus; assay: Time kill assay; format: cell-based, Staphylococcus aureus
Method: A time kill assay was performed according to the modified protocol of Sendi and Ruppen, 2015 [137]. […] From these dilutions, 25 µL was seeded in brain heart infusion agar in a well of a 12-well plate. An untreated control was plated in the same way. Then, the bacterial suspension (treated and untreated) was placed in an incubator (MLW Kombinat, Leipzig, Germany) at 37 °C. Again, 25 µL of it was taken for seeding after 1, 2, 3, 4, 6, and 24 h, which equals a total of 7 time points. After 16–24 h of incubation, the colonies in the seeded plates from all dilutions were counted, and the number of colony-forming units (CFU) per mL, or in other words, bacteria per mL, was calculated.

SMILES: CC(C)=CCCC1(C)C(CC=C(C)C)CC2C(=O)C1(C(=O)C(C)C)C(=O)C(CC=C(C)C)=C2O (stereo not drawn) [Olympiforin B]
- Induction of total CYP450 [1]: hardly induce
- Bacteria remaining in time kill assay ([2]; 1/2 × MBC, 24 h): 302,000 CFU/mL
- Outcome of time kill assay ([2]; MBC concentration, by 24 h): killed all bacteria
